How the values were obtained:
[1] = target: T1, rat P2X3 receptor (Rattus norvegicus, UniProt P49654); test: P2X3 FLIPR (Fluorometric Imaging Plate Reader) assay; assay type: cell-based; settings: CHO-K1 cells transfected with rat P2X3; agonist α,β-meATP 1 μM; read-out: pIC50 for the P2X3 receptor (converted)
T1 construct: expressed in transfected cells; host or cells: CHO-K1
T1 sequence (P49654 1-397): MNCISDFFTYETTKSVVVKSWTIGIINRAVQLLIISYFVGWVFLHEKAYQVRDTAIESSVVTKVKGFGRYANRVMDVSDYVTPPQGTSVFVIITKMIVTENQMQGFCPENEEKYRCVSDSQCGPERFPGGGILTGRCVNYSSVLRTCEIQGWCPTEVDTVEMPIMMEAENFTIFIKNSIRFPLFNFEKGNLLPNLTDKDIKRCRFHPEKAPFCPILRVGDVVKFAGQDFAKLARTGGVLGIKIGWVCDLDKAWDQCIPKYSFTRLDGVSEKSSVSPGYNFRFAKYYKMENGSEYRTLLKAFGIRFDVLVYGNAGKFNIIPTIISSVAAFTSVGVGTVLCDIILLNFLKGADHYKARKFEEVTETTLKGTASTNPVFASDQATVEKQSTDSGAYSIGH
Procedure: (§1) CHO-K1 cells were transfected with cloned rat P2X3 or human P2X2/3 receptor subunits and passaged in flasks. 18-24 hours before the FLIPR experiment, cells were released from their flasks, centrifuged, and resuspended in nutrient medium at 2.5×10^5 cells/ml. The cells were aliquoted into black-walled 96-well plates at a density of 50,000 cells/well and incubated overnight in 5% CO2 at 37° C. On the day of the experiment, cells were washed in FLIPR buffer (calcium- and magnesium-free Hank's balanced salt solution, 10 mM HEPES, 2 mM CaCl2, 2.5 mM probenecid; FB). Each well received 100 μl FB and 100 μl of the fluorescent dye Fluo-3 AM [2 μM final conc.]. […]
(§2) Test compounds (dissolved in DMSO at 10 mM and serially diluted with FB) or vehicle were added to each well (25 μl of a 4× solution) and allowed to equilibrate for 20 minutes at room temperature. The plates were then placed in the FLIPR and a baseline fluorescence measurement (excitation at 488 nm and emission at 510-570 nm) was obtained for 10 seconds before a 100 μl/well agonist or vehicle addition. […] Fluorescence was measured for an additional 2 minutes at 1 second intervals after agonist addition. A final addition of ionomycin (5 μM, final concentration) was made to each well of the FLIPR test plate to establish cell viability and maximum fluorescence of dye-bound cytosolic calcium. […]

[2] = target: T2, human P2X2/3 receptor (Homo sapiens, UniProt P56373+Q9UBL9); test: P2X2/3 FLIPR (Fluorometric Imaging Plate Reader) assay; assay type: cell-based; settings: CHO-K1 cells transfected with human P2X2/3; agonist α,β-meATP 5 μM; read-out: pIC50 for the P2X2/3 receptor (converted)
T2 construct: expressed in transfected cells; host or cells: CHO-K1
T2 sequence (P56373 1-397): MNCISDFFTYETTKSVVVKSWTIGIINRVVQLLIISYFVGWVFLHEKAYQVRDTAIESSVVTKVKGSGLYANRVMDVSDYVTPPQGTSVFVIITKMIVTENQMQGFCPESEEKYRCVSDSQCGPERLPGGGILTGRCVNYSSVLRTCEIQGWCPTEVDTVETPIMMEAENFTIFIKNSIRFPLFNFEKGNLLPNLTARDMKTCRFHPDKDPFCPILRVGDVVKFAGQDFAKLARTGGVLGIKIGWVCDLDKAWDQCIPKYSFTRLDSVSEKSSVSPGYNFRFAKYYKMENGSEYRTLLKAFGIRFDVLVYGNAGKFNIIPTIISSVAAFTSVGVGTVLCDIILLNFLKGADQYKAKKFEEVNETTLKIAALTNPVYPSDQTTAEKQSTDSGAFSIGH
T2 sequence (Q9UBL9 1-471): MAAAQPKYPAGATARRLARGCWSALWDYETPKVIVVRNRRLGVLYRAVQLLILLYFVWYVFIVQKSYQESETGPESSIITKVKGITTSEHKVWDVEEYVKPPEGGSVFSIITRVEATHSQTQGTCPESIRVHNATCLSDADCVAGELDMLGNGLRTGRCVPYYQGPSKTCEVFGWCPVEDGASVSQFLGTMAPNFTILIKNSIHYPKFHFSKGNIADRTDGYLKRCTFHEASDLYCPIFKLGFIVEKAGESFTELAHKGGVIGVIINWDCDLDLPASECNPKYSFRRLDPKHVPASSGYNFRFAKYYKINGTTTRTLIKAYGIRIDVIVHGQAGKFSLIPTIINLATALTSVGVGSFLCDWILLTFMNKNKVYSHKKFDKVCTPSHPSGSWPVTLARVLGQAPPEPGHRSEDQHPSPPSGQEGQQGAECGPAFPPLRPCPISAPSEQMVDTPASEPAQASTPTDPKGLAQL
Procedure: as §1, §2

IC50 [1]: ~15.8 nM
IC50 [2]: ~39.8 nM
Structure (SMILES): COc1cc(C(C)C)c(Oc2cnc(NC(=O)C(C)C)nc2N)cc1I [Compound 10, N-[4-Amino-5-(5-iodo-2-isopropyl-4-methoxy-phenoxy)-pyrimidin-2-yl]-isobutyramide]
